Results: PMC10412585 (Nature Communications, 2023)

Columns and labels:
Assay type in all cases: cell-based, human
HLA-E = HLA-E surface stabilization assay with RMA-S/HLA-E cells; conditions: peptide 3-300 µM (Fig. 3: 30 µM) in OptiMEM, 16 h, 37 °C, anti-HLA-E 3D12, flow cytometry, n = 4 replicate experiments
Method: To probe top-predicted proteome-derived peptides (Tables 2 and 3) for HLA-E binding, we assessed their ability to stabilize surface-expressed HLA-E on RMA-S/HLA-E cells, a TAP-deficient mouse cell line engineered to express HLA-E and human β2M (Fig. 3 and Supplemental Fig. 8)[47].
Fig. 3 Peptide stabilization of HLA-E surface expression. Assessment of peptide-HLA-E binding via HLA-E surface stabilization assay with RMA-S/HLA-E cells incubated with 30 μM peptide. HLA-E expression is detected with an anti-HLA-E antibody. Measurements from n = 4 replicate experiments are shown, with solid black lines indicating mean values. […] Source data are provided as a Source Data file.
RMA-S/HLA-E cells were incubated with serial dilutions of peptides (3–300 µM, Genscript) in OptiMEM (ThermoFisher) for 16 h at 37 °C. Cells were washed with PBS, stained for HLA-E (Clone 3D12, Biolegend, 1:200 dilution) for 15 min at room temperature and analyzed by flow cytometry (analysis in FlowJo version 10). Peptide UBAC2_275-279 was ordered as a 5mer peptide (WNRLF) given the similarity with other WN peptides and hypothesis of a truncated peptide binding in the HLA-E groove. […] Measurements from replicate experiments are plotted in Fig. 3 and Supplemental Fig. 8.

NKG2A+/NKG2C- NK cells = test: NK cell activation assay with peptide-pulsed K562/HLA-E cells, NKG2A+/NKG2C- NK cells; conditions: K562/HLA-E target cells, 300 µM peptide ([…] µM BFAR263-271), E:T 2:1, 6 h; degranulation (CD107a), IFN-γ, TNF, CCL3; flow cytometry
Method: (§1) We hypothesized that our predicted proteome-derived peptides could affect NK cell activation through interactions with CD94/NKG2A and CD94/NKG2C. To investigate, we performed cell-based activation assays on primary NK cells (Fig. 4A). NK cells were co-incubated with peptide-pulsed HLA-E-expressing K562 cells, as described previously. The parental K562 human myelogenous leukemia cell line is a typical target to measure NK cell cytotoxicity and activation, allowing for assessment of both NKG2A-mediated inhibition and NKG2C-mediated activation. […] NKG2A^-/NKG2C^- NK cells served as internal control as these should be unaffected by peptide-HLA-E complexes (Supplemental Fig. 12).
(§2) Fig. 4 NK cell stimulation assays. Assessment of effects of peptides on NK cell activity through incubation of NK cells, peptides, and (A) K562/HLA-E or (B) RMA-S/HLA-E target cells. […] Replicates for individual peptides are from different donors, with solid black lines indicating mean values. […] Representative gating for NKG2A^+/NKG2C^- and NKG2A^-/NKG2C^+ NK cells is shown in Supplemental Fig. 14. Source data are provided as a Source Data file.
(§3) All analyses of human data were carried out in compliance with the relevant ethical regulations. Healthy blood donors gave informed consent at DRK Blutspendedienst Nord-Ost, Dresden, Germany, and buffy coats were obtained as approved by Charité ethics committee (EA4/059/17). PBMCs were isolated from human CMV-seropositive buffy coats by density centrifugation over Ficoll Paque Plus (GE Healthcare) and screened for the presence of NKG2C^+ NK cell expansions by flow cytometry to have sufficient frequencies of single-positive cells for parallel assessment of activation and inhibition via HLA-E[47]. Total NK cells from donors with NKG2C^+ expansions (>10% NKG2A^-/NKG2C^+ NK cells) were enriched with CD56 microbeads (Miltenyi Biotec) and cryopreserved in FBS with 10% v/v DMSO. After thawing, NK cells were washed with complete medium, stained with antibodies and Fixable Viability Dye eFluor 780 (Thermo Fisher) for 15 min at 4 °C in PBS, sorted as viable CD56^+ CD3^− cells, and rested in complete media overnight. […] Brefeldin A and Monensin (BD Biosciences) were added after a 1 h culture period. After an additional 5 h, the stimulation was stopped by centrifugation at 4 °C. Cells underwent surface staining, followed by fixation and intracellular staining using Inside Stain Kit (Miltenyi Biotec). Samples were analyzed by flow cytometry on an LSR Fortessa (BD Biosciences). Inhibition of NKG2A^+ NK cells and activation of NKG2C^+ NK cells was assessed by gating on the respective single-positive populations (Supplemental Fig. 14). Antibodies are listed in Supplemental Table 1: anti-human CD56 PE/Dazzle 594 (1:200 dilution), CD3 APC-eFluor 780 (1:50 dilution), anti-human CD159a (NKG2A) Biotin REAfinity (1:50 dilution), anti-human CD159c (NKG2C) PE REAfinity (1:100 dilution), anti-human CD107a (LAMP-1) Alexa Fluor 488 (1:400 dilution), anti-human IFN-γ PE-Vio 770 REAfinity (1:50 dilution), anti-human TNF-α Brilliant Violet 605 (1:50 dilution), anti-human CCL3 (MIP-1α) REAfinity (1:25 dilution).

NKG2A-/NKG2C+ NK cells = test: NK cell activation assay with peptide-pulsed K562/HLA-E cells, NKG2A-/NKG2C+ NK cells; conditions: K562/HLA-E target cells, 300 µM peptide ([…] µM BFAR263-271), E:T 2:1, 6 h; degranulation (CD107a), IFN-γ, TNF, CCL3; flow cytometry
Method: as §1, §2, §3

NKG2A-/NKG2C- NK cells = test: NK cell activation assay with peptide-pulsed K562/HLA-E cells, NKG2A-/NKG2C- internal control; conditions: K562/HLA-E target cells, 300 µM peptide, flow cytometry
Method: We hypothesized that our predicted proteome-derived peptides could affect NK cell activation through interactions with CD94/NKG2A and CD94/NKG2C. To investigate, we performed cell-based activation assays on primary NK cells (Fig. 4A). NK cells were co-incubated with peptide-pulsed HLA-E-expressing K562 cells, as described previously. The parental K562 human myelogenous leukemia cell line is a typical target to measure NK cell cytotoxicity and activation, allowing for assessment of both NKG2A-mediated inhibition and NKG2C-mediated activation. A side-by-side comparison of the HLA-E expression levels of K562/HLA-E and RMA-S/HLA-E cell lines is shown in Supplemental Fig. 11. All peptides which bound and stabilized HLA-E in the cell-based stability experiment (Fig. 3) were analyzed for their effects on NKG2A^+/NKG2C^- or NKG2A^-/NKG2C^+ NK cell activity, as measured by their ability to induce NK cell degranulation as well as IFN-γ, TNF and CCL3 production, in comparison to class I MHC-derived positive control peptides […] and […], and negative control peptide […] […]
All analyses of human data were carried out in compliance with the relevant ethical regulations. […] Samples were analyzed by flow cytometry on an LSR Fortessa (BD Biosciences). Inhibition of NKG2A^+ NK cells and activation of NKG2C^+ NK cells was assessed by gating on the respective single-positive populations (Supplemental Fig. 14). […]

“SAPLKTRFL [UL120_71-79, AD169, divergent UL120 peptide of CMV strain AD169]” was tested, and the “stabilization of HLA-E surface expression” value (HLA-E) was “weaker but detectable stabilization”, the “inhibitory effects on NKG2A+ cells” value (NKG2A+/NKG2C- NK cells) was “negatively affect activation of all subsets” and the “activating effects on NKG2C+ cells” value (NKG2A-/NKG2C+ NK cells) was “negatively affect activation of all subsets”. For the same sequence, the “effect on activation of internal NKG2A-/NKG2C- control NK cells” value (NKG2A-/NKG2C- NK cells) was “negatively affect activation of all subsets”.
